According to patent US20220249596A1, “PIC1 PEPTIDE COMPOSITIONS AND METHODS OF USE THEREOF FOR TREATMENT OF HYPOXIC ISCHEMIC ENCEPHALOPATHY” (REALTA HOLDINGS, LLC, priority 2019, published 2022):
No end group written: not given here.

Assays:
Format in all cases: in vivo, rat
[1] = test system: C5aR; experiment: Whole brain C5aR expression, Western blotting and immunofluorescence; conditions: NT versus PIC1-treated groups
Procedure: After blocking for one hour at room temperature, tissues were incubated with 1:300 goat anti-Iba1 (Abcam), 1:250 goat anti-GFAP (Abcam), 1:500 chicken anti-NeuN (Millipore, Billerica, Mass.), or 1:100 mouse anti-NeuN (Millipore) in host appropriate blocking serum overnight at 4° C. Primary antibodies were probed with 1:500 donkey anti-goat (Abcam), goat anti-chicken (Abcam), or goat anti-mouse (Abcam) AF 488 or 568 in appropriate blocking serum for one hour at room temperature. Tissues were blocked a second time with NGS for one hour at room temperature. Samples were then probed with 1:300 mouse anti-C1q (Abcam), 1:300 rabbit anti-C9, 1:50 rabbit anti-MPO (Abcam), 1:200 rabbit anti-TMEM (Novus Bio, Centennial, Colo.), 1:100 rabbit anti-C3aR (Bioss), 1:100 Mouse anti-C5aR (Hycult), or 1:200 chicken anti-C3/C3a (Abcam) in NGS overnight at 4° C. and then with 1:500 goat anti-mouse, rabbit, or chicken (Abcam) AF 488 or 568 in NGS for one hour at room temperature.
Without wishing to be bound by theory, C3a is generated at the convergence of all known complement activation pathways (i.e., the classical, alternate and lectin pathways). To investigate further, C3aR levels in the brain were measured by Western blotting and immunofluorescence (FIG. 5). Western blotting was performed as follows. […]

[2] = Beam walk assay, fine motor coordination and balance; conditions: versus NT animals
Procedure: Fine motor coordination and balance was assessed by a beam walk assay, which was performed as follows. Gross motor function and balance was evaluated using the beam walking test 6 weeks after HIE. Beams of varying widths (19 mm, 13 mm, or 6 mm) were used that led to a dark escape box. Each beam was 90 cm long and elevated 60 cm from the ground. The goal of this test is for the rat to stay upright and walk across elevated narrow beams of decreasing width (0.75 and 0.25 inches, or 19 mm and 6 mm) to a safe platform.
Rats were placed on a loading platform on the proximal end of the apparatus, and instinctively walked towards the box when placed on a beam. Rats were trained on each beam prior to the test. On the test day, rats were placed on the loading platform, and videos were recorded. Rats were given up to 5 attempts to cross each beam. Failures, i.e., inability to cross along with right and left foot slips, were analyzed by an investigator blinded to the treatment

[3] = test system: C3; experiment: Immunofluorescence quantification of C3 in brain; conditions: ipsilateral cortex and hippocampus, 48 hours, versus NT, P<0.05
Procedure: TUNEL/C1q staining was performed as follows. Five (5) μm paraffin-embedded coronal brain sections on slides were incubated (1 hour; 60° C.), deparaffinized with xylene, and rehydrated with ethanol (100%, 95%, 70%; RT). Endogenous peroxidase activity was blocked (0.3% H2O2/MeOH; 10 minutes; RT), and heat induced antigen retrieval was performed (when indicated) using 10 mM sodium citrate, pH 6.0. 10% normal serum (from the same species as the host of the secondary antibody) was used to block and to dilute antibodies. Samples were washed twice for 10 min each, in PBST between each step.
After blocking for one hour at room temperature, tissues were incubated with 1:300 goat anti-Iba1 (Abcam), 1:250 goat anti-GFAP (Abcam), 1:500 chicken anti-NeuN (Millipore, Billerica, Mass.), or 1:100 mouse anti-NeuN (Millipore) in host appropriate blocking serum overnight at 4° C. Primary antibodies were probed with 1:500 donkey anti-goat (Abcam), goat anti-chicken (Abcam), or goat anti-mouse (Abcam) AF 488 or 568 in appropriate blocking serum for one hour at room temperature. Tissues were blocked a second time with NGS for one hour at room temperature. […]

Q: Which “expression of C5aR” value [1] does the source give for “IALILEPICCQERAA-dPEG24 (cysteine pairing not given here) [PIC1]” here?
A: no significant differences

Q: What about the beam walk performance ([2]; 0.25 inch beam) of the same substance?
A: performed significantly better

Q: What about the beam walk performance ([2]; 0.75 inch beam) of the same substance?
A: performed significantly better

Q: And the C3 expression [3]?
A: decreased expression
